For 8 compounds, Revertants/plate results are on record in ChEMBL document CHEMBL1122195, “Effect of 4'-halogen substitution on the mutagenicity of trans-4-acetamidostilbene and trans-4-(N-hydroxyacetamido)stilbene in the Salmonella typhimurium test system” (1982).

For this test, the system named is Salmonella typhimurium. Nature of the test: Comparative mutagenic activity toward Salmonella Typhimurium strain TA-100 at concentration of 10 nmol/plate. In kind it is functional, Salmonella enterica subsp. enterica serovar Typhimurium.
Take `CC(=O)N(O)c1ccc(/C=C/c2ccc(F)cc2)cc1`: the Revertants/plate stood at 825. As for `CC(=O)N(O)c1ccc(/C=C/c2ccc(Cl)cc2)cc1`, the Revertants/plate was 356. Take `CC(=O)Nc1ccc(/C=C/c2ccc(Br)cc2)cc1`: the Revertants/plate is recorded as 211. The compound `CC(=O)Nc1ccc(/C=C/c2ccc(Cl)cc2)cc1` displayed a Revertants/plate of 382. To `CC(=O)Nc1ccc(/C=C/c2ccc(F)cc2)cc1` belongs 632; to `CC(=O)Nc1ccc(/C=C/c2ccccc2)cc1`, 385. The result for `CC(=O)N(O)c1ccc(/C=C/c2ccccc2)cc1` reads 1218; that for `CC(=O)N(O)c1ccc(/C=C/c2ccc(Br)cc2)cc1`, 374.
